For assay [1], the system named is Wnt pathway activity (SW480 colon carcinoma cells stably expressing the Sp5-Luc reporter). The assay can be described thus: Wnt pathway activity screening assay (Sp5-Luc reporter gene assay). To be noted: Homo sapiens, SW480, Table 4; SW480 cells stably expressing Sp5-Luc reporter, 10-point dose-response from 10 μM, 36 to 48 hours. A general note: In a reporter assay the amount or activity of a reporter protein is the signal.

Another assay addresses CLK2 kinase (Homo sapiens, UniProt P49760). Description: CLK2 kinase activity assay (Z-lyte FRET).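 Also: FRET read-out as coumarin to fluorescein emission ratio, unphosphorylated peptide as 0% and phosphorylated peptide as 100% controls, duplicate reactions, non-linear regression fit of dose-response curves.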 To be noted: Z-lyte Ser/Thr 6 peptide, 60 μM ATP, 1 h at room temperature. It is filed as biochemical.
Another assay has as its target CLK3 kinase (Homo sapiens, UniProt P49761). The assay can be described thus: CLK3 kinase activity assay (Z-lyte FRET).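 Also: kinase activity read as coumarin/fluorescein emission ratio by FRET, unphosphorylated peptide as 0% and phosphorylated peptide as 100% control, values from non-linear regression of dose-response curves.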 It is filed as biochemical. To be noted: Z-lyte Ser/Thr 18 peptide, 156 μM ATP, 1 h at room temperature.
In assay [2] the test system is MMP-3 levels in supernatant of chondrocytes stimulated with IL1-β. Description: Chondrocyte protection assay compound screening (MMP-3 LANCE Ultra). To be noted: Homo sapiens, Chondrocyte, IL1-β 10 ng/mL overnight, 11-point curves from 3 μM to 0.05 nM; for Emax: read-out: Maximum % Inhibition. It is filed as cell-based, human. Put shortly:
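Primary human chondrocytes (passage 2–5) in differentiation medium were stimulated with 10 ng/mL IL1-β for an overnight incubation at 37 °C. MMP-3 in 1:7-diluted supernatant was read by TR-FRET immunoassay against a standard curve, normalised to IL1-β-stimulated wells; EC50 and maximum % inhibition came from nonlinear regression.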
Background: In TR-FRET formats the signal depends on donor and acceptor labels being close together.

25 molecules from patent US20230000842A1, “METHODS OF TREATING CARTILAGE DISORDERS THROUGH INHIBITION OF CLK AND DYRK” (SAMUMED, LLC, priority 2019, published 2023) can be followed below.

Sequence of CLK2 kinase (P49760 whole entry): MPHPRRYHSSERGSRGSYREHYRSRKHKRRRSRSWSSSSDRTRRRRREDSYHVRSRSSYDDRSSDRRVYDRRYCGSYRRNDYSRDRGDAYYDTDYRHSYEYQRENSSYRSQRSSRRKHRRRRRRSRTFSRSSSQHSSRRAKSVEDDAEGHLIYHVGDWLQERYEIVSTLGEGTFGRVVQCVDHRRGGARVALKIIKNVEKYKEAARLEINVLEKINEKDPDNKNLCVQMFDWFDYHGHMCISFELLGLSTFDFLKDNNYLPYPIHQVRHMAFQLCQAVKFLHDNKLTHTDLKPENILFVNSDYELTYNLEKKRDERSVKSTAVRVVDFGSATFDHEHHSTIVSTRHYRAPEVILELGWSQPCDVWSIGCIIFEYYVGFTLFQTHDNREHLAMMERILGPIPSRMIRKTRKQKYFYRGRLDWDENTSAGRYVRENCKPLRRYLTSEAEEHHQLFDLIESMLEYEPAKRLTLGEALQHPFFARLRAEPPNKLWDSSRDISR
Sequence of CLK3 kinase (P49761 whole entry): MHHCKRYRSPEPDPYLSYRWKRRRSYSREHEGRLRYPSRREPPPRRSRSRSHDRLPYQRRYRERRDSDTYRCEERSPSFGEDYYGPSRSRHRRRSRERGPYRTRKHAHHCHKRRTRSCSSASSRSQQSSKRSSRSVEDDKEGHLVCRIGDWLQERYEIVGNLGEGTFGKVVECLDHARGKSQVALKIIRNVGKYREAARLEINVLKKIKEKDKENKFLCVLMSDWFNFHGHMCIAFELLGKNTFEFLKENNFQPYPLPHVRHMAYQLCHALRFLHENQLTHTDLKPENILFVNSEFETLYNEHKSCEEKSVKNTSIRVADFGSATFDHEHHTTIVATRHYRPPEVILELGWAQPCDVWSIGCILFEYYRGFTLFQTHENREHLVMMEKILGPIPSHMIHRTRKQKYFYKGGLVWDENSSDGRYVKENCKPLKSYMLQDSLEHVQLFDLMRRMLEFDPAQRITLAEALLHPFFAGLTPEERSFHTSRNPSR

As to `CC(C)OC(=O)N1CCC(n2cc(C(=O)Nc3cc4cc(-c5cnn(C)c5)ccc4cn3)cn2)CC1` [compound 562], the half-maximal effective concentration (EC50) in assay [1] was 54.5 nM; on CLK2 kinase, 1 nM; on CLK3 kinase, 20 nM; in assay [2], 88.1 nM. The Emax in assay [2] amounted to 34.8%.

As to `CN1CCC(Nc2ccc(NC(=O)c3n[nH]c4cc(F)c(-c5cnn(C)c5)cc34)cn2)CC1` [compound 109], the EC50 in assay [1] was found to be 230 nM; at CLK2 kinase, 1 nM; on CLK3 kinase it was 79 nM; in assay [2], 1160 nM. Moreover, in assay [2], the Emax turned out to be 100%.

As to `CC(C)N1CCC(n2cc(C(=O)Nc3cc4cc(-c5cn(C)nn5)ccc4cn3)cn2)CC1` [compound 579], the half-maximal effective concentration (EC50) turned out to be 32.7 nM in assay [1], 2 nM at CLK2 kinase, 19 nM at CLK3 kinase and 492 nM in assay [2]. Further, the Emax in assay [2] was 91%.

Regarding `Cn1ncc(-c2ccc3cnc(NC(=O)[C@H]4CC[C@H](CO)CC4)cc3c2)c1CN1CCCCC1` [compound 570], the EC50 in assay [1] is 594 nM; at CLK2 kinase, 9 nM; at CLK3 kinase, 143 nM; in assay [2] it was at least 3000 nM. In addition, the Emax in assay [2] worked out at 80.6%.

As to `Cc1ccncc1-c1cc2c(-c3nc4c(-c5cc(F)cc(CNS(C)(=O)=O)c5)cncc4[nH]3)n[nH]c2cn1` [compound 290], the EC50 in assay [1] came out at 96.6 nM; on CLK2 kinase, 2 nM; on CLK3 kinase it was 17 nM; in assay [2], 604 nM.

For `O=C(Nc1ccc(CN2CCCC2)cc1)c1n[nH]c2ccc(-c3cnn(C4CC4)c3)cc12` [compound 113], the EC50 in assay [1] was 451 nM; on CLK2 kinase, 1 nM; on CLK3 kinase, 133 nM; in assay [2], at least 3000 nM. Moreover, the Emax in assay [2] was 57%.

On to `NC1CN(c2cncc(-c3ccc4[nH]nc(-c5nc6ccncc6[nH]5)c4c3)c2)C1` [compound 205], for which the concentration for a half-maximal effect (EC50) stood at 344 nM in assay [1], 1 nM at CLK2 kinase, 182 nM on CLK3 kinase and 20.8 nM in assay [2]. Also, the Emax in assay [2] is 61.5%.

`O=C(Nc1cncc(-c2ccc3[nH]nc(-c4nc5c(-c6cccnc6)cncc5[nH]4)c3c2)c1)c1ccccc1` [compound 192]: the EC50 in assay [1] is over 10000 nM; on CLK2 kinase, 5 nM; on CLK3 kinase it was 17 nM; in assay [2] it was 1.9 nM. The Emax in assay [2] stood at 95.5%.

As for `CCN(C)Cc1cncc(-c2cnc3[nH]nc(-c4nc5c(-c6cccc(F)c6)cncc5[nH]4)c3c2)c1` [compound 140], the EC50 in assay [1] amounted to 643 nM; at CLK2 kinase, 2 nM; on CLK3 kinase, 22 nM; in assay [2] it was 0.8 nM. Further, the Emax in assay [2] was 76.4%.

As to `O=C(Nc1c[nH]nc1C(=O)Nc1ccc(N2CCCCC2)nc1)c1cncc(OC2CCNCC2)c1` [compound 13], the 50% effective concentration (EC50) in assay [1] is 662 nM; on CLK2 kinase, 14 nM; at CLK3 kinase, 3500 nM; in assay [2], at least 3000 nM. The Emax in assay [2] amounted to 71%.

Turning to `O=C(Nc1c[nH]nc1C(=O)Nc1cccnc1)c1cccnc1` [compound 1], the EC50 in assay [1] amounted to 20.5 nM; at CLK2 kinase, 23 nM; at CLK3 kinase, 5300 nM; in assay [2], 38.9 nM. Further, the Emax in assay [2] amounted to 100%.

`O=C(Nc1ccc(CN2CCCC2)cc1)c1n[nH]c2ccc(-c3cnccn3)cc12` [compound 104]: the EC50 is 1660 nM in assay [1], 2 nM on CLK2 kinase, 378 nM at CLK3 kinase and 7.1 nM in assay [2]. Also, the Emax in assay [2] was 72.8%.

As for `CC(C)n1cc(C(=O)Nc2cc3cc(-c4cncn4C(C)C)ccc3cn2)cn1` [compound 586], the EC50 was 115 nM in assay [1], 7 nM on CLK2 kinase, 23 nM at CLK3 kinase and 4.6 nM in assay [2]. Also, in assay [2], the Emax is 41.7%.

For `O=C(Nc1c[nH]nc1C(=O)Nc1ccc(OCCN2CCCC2)cc1)c1cccnc1` [compound 3], the EC50 in assay [1] was found to be 119 nM; on CLK2 kinase, 24 nM; at CLK3 kinase it was 3700 nM; in assay [2], 811 nM. Besides, the Emax in assay [2] worked out at 23.7%.

For the molecule `CC(C)N1CCC(c2nc(C(=O)Nc3cc4cc(-c5cnn(C)c5)ccc4cn3)co2)CC1` [compound 563], the EC50 in assay [1] was 80 nM; on CLK2 kinase it was 5 nM; at CLK3 kinase it was 26 nM; in assay [2] it was 57.3 nM. Further, the Emax in assay [2] was determined as 72.4%.

Take `FC1(F)CCN(Cc2cncc(-c3cnc4[nH]nc(-c5nc6c(-c7ccoc7)nccc6[nH]5)c4c3)c2)C1` [compound 241]: the EC50 amounted to 162 nM in assay [1], 4 nM at CLK2 kinase, 34 nM at CLK3 kinase and 0.1 nM in assay [2]. The Emax in assay [2] was determined as 87.1%.

As to `O=C(CC1CCNCC1)Nc1cncc(-c2ccc3[nH]nc(-c4nc5c(-c6ccsc6)nccc5[nH]4)c3n2)c1` [compound 248], the concentration giving a half-maximal response (EC50) was over 10000 nM in assay [1], 1 nM on CLK2 kinase, 66 nM on CLK3 kinase and at least 3000 nM in assay [2]. In assay [2], the Emax amounted to 40.7%.

On to `CN1CCC(Oc2ncc(NC(=O)c3n[nH]c4cc(F)c(-c5cnn(C)c5)cc34)cc2F)CC1` [compound 111], for which the EC50 stood at 1150 nM in assay [1], 1 nM at CLK2 kinase, 89 nM on CLK3 kinase and 12.6 nM in assay [2]. Also, in assay [2], the Emax amounted to 76.2%.

In the case of `CC(C)OC(=O)N1CCC(n2cc(C(=O)Nc3cc4cc(-c5cnn(C)c5)ncc4cn3)cn2)CC1` [compound 609], the concentration giving a half-maximal response (EC50) in assay [1] is 824 nM; on CLK2 kinase it was 6 nM; on CLK3 kinase, 61 nM; in assay [2] it was 154 nM. Further, in assay [2], the Emax came out at 50.2%.

Regarding `CC(C)n1cc(C(=O)Nc2cc3cc(-c4cncn4C)ccc3cn2)cn1` [compound 585], the EC50 in assay [1] was 34.8 nM; on CLK2 kinase it was 1 nM; on CLK3 kinase, 13 nM; in assay [2], 1430 nM. In assay [2], the Emax is 77.9%.

Turning to `O=C(Nc1ccc(N2CCCC2)nc1)c1n[nH]c2ccc(-c3cncc(CN4CCC4)c3)cc12` [compound 68], the EC50 in assay [1] is over 10000 nM; on CLK2 kinase, 1 nM; at CLK3 kinase, 139 nM; in assay [2], at least 3000 nM. For the same molecule, the Emax in assay [2] was determined as 26.6%.

With `CC(C)NC(=O)c1n[nH]c2ccc(-c3cncc(NC4CCNCC4)n3)cc12` [compound 105], the EC50 in assay [1] turned out to be 2400 nM; on CLK2 kinase, 1 nM; at CLK3 kinase, 2440 nM; in assay [2] it was 2740 nM. For the same molecule, the Emax in assay [2] was 53.1%.

Consider `CO[C@H]1CC[C@H](C(=O)Nc2cc3cc(-c4cnn(C)c4CN4CCCCC4)ccc3cn2)CC1` [compound 569], for which the EC50 in assay [1] was 471 nM; on CLK2 kinase, 8 nM; at CLK3 kinase it was 164 nM; in assay [2], at least 3000 nM. The Emax in assay [2] turned out to be 0.2%.

Turning to `Cc1n[nH]c2ccc(-c3cncc(N4CC(C)(N)C4)n3)cc12` [compound 36], the EC50 in assay [1] worked out at 3510 nM; at CLK2 kinase, 70 nM; at CLK3 kinase it was 3400 nM; in assay [2] it was 1610 nM.

With `CN1CCC(Oc2ccc(NC(=O)c3n[nH]c4cc(F)c(-c5cnn(C)c5)cc34)cn2)CC1` [compound 110], the EC50 in assay [1] stood at 120 nM; at CLK2 kinase it was 1 nM; at CLK3 kinase it was 48 nM; in assay [2], 1080 nM. In addition, the Emax in assay [2] came out at 87.2%.

One may read the EC50 as the concentration at which the effect is half-maximal. Low readings indicate higher potency in that assay, high ones lower potency in that assay.
